Assay in all cases: NCI-60 cell line screen, 48 h
Test [1] relates to NCI-H522 lung.
The test system of test [2] is UACC-257 melanoma.
The test system of test [3] is SK-MEL-5 melanoma.
Test [4] has as its system SK-OV-3 ovarian.
Test [5] has as its system LOX IMVI melanoma.
The test system of test [6] is CAKI-1 renal.
Test [7] relates to UO-31 renal.
For test [8], the system named is NCI-H226 lung.

Structures are written as SMILES. Values joined by “and” are separate entries in the source; they are usually repeats but may differ in a detail not shown here. Equal entries are not always repeated.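 Protocol summary: plate cells (96-well), add compound at 5 concentrations, incubate 48 h, interpolate endpoints linearly. GI50 is the concentration that inhibits growth by half. At the TGI there is no net growth.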

Consider `Cc1cccc(N(C)C(=O)[C@@H]2[C@H](O)CCN2c2nc(C)cc(C(F)(F)F)c2C#N)c1`, for which the GI50 in test [1] was 10.7 µM; in test [2], 28.3 µM; in test [3], 15.6 µM; in test [4], 24.1 µM; in test [5], 3.61 µM; in test [6], 29.1 µM. Further, the GI50 in test [7] was 14.8 µM; in test [8] it was 23.9 µM. The TGI in test [1] was 32 µM; in test [2], greater than 100 µM; in test [3] it was 30.6 µM; in test [4] it was 81.1 µM; in test [5], 27.3 µM; in test [6] it was greater than 100 µM. Moreover, the results for the TGI in test [7] and in test [8] were 29.5 µM and greater than 100 µM, respectively.

With `COc1ccc(C2CC(c3cccc(Nc4ccnc5cc(Cl)ccc45)c3)=NN2C=O)cc1` (stereo not drawn), the GI50 in test [1] is 0.265 µM; in test [2], 0.677 µM; in test [3], 0.403 µM; in test [4], 0.795 µM; in test [5], 0.584 µM; in test [6], 0.394 µM. Further, the GI50 was 0.989 µM in test [7] and 39.3 µM in test [8]. Besides, the TGI in test [1] was 3.06 µM; in test [2], 34.8 µM; in test [3], 25.8 µM; in test [4] it was greater than 35.6 µM; in test [5], 6.8 µM; in test [6], 29.2 µM. Also, the TGI in test [7] and in test [8] was greater than 100 µM throughout.

With `CN(c1ncccc1CNc1nc(Nc2ccc3c(c2)CC(=O)N3)ncc1C(F)(F)F)S(C)(=O)=O`, the GI50 in test [1] is 1.81 µM and 2.24 µM; in test [2] it was 1.6 µM and 2.24 µM; in test [3], 2.57 µM and 2.28 µM; in test [4] it was 5.04 µM and 4.61 µM; in test [5], 1.31 µM and 1.68 µM; in test [6], 2.15 µM and 2.87 µM. The GI50 in test [7] was 2.88 µM and 2.82 µM; in test [8] it was 2.38 µM and 2.25 µM. The TGI is 5.41 µM and 7.71 µM in test [1]; 5.54 µM and 8.76 µM in test [2]; 7.44 µM and 5.85 µM in test [3]; greater than 100 µM in test [4]; 17.4 µM and 9.4 µM in test [5]; greater than 52.4 µM in test [6]. The TGI in test [7] was greater than 28.7 µM; in test [8], 7.97 µM and > 10 µM.

In the case of `NS(=O)(=O)c1ccc(Nc2cc(-c3cccc(O)c3)[nH]n2)cc1`, the GI50 is 22.6 µM in test [1]; greater than 25 µM in test [2]; 14.8 µM in test [3]; greater than 25 µM in test [4]; greater than 25 µM in test [5]; greater than 25 µM in test [6]. For the same molecule, the GI50 in test [7] and in test [8] was greater than 25 µM throughout. The TGI in test [1], in test [2], in test [3], in test [4], in test [5] and in test [6] was greater than 25 µM throughout. For the same molecule, the TGI in test [7] and in test [8] was greater than 25 µM in each case.

As for `CCN(CCCN(C)C)Cc1cc(I)cc(C)c1O`, the GI50 in test [1] was 18.7 µM; in test [2], 16.3 µM; in test [3] it was 17.6 µM; in test [4] it was 35.3 µM; in test [5], 18.3 µM; in test [6], 18.5 µM. Besides, the values for the GI50 in test [7] and in test [8] were 35.6 µM and 38.8 µM, respectively. Moreover, the TGI is 36.4 µM in test [1]; 32.5 µM in test [2]; 31.5 µM in test [3]; greater than 100 µM in test [4]; 34.6 µM in test [5]; 39.3 µM in test [6]. The TGI in test [7] and in test [8] was greater than 100 µM throughout.

As to `CC(C)(C)c1ccc(S(=O)(=O)Oc2ccc3c4c(c(=O)oc3c2)CCCCC4)cc1`, the GI50 in test [1] was 19.2 µM; in test [2] it was 7.46 µM; in test [3], 5.48 µM; in test [4] it was 19.7 µM; in test [5] it was 32.5 µM; in test [6], 10.9 µM. Moreover, the results for the GI50 in test [7] and in test [8] were 12.7 µM and 9.94 µM, respectively. Also, the TGI in test [1] was greater than 100 µM; in test [2], greater than 100 µM; in test [3] it was 85.4 µM; in test [4], 52.2 µM; in test [5] it was greater than 100 µM; in test [6] it was 43.5 µM. In addition, the TGI in test [7] is 44 µM; in test [8] it was greater than 100 µM.

Consider `COc1ccc(/C=C/C(=O)c2cc(OC)c(OC)c(OC)c2)cc1OCC(=O)Nc1nc2ccc(OC(F)(F)F)cc2s1`, for which the GI50 in test [1] was 0.671 µM; in test [2] it was 8.08 µM; in test [3], 2.03 µM; in test [4] it was 2.16 µM; in test [5] it was 0.47 µM; in test [6] it was 2.2 µM. Moreover, the results for the GI50 in test [7] and in test [8] were 1.61 µM and 3.35 µM, respectively. The TGI in test [1] is 3.36 µM; in test [2], greater than 100 µM; in test [3], 10.5 µM; in test [4], 5.07 µM; in test [5] it was 1.95 µM; in test [6] it was 6.03 µM. Moreover, the TGI came out at 5.07 µM in test [7] and 32.1 µM in test [8].

Consider `CC(=O)Nc1ccc2c(c1)C(c1ccccc1Cl)=Nc1c(n[nH]c1C)N2`, for which the GI50 in test [1] was greater than 15.9 µM; in test [2] it was greater than 25 µM; in test [3], 17.6 µM; in test [4], greater than 25 µM; in test [5], 2.75 µM; in test [6], 2.84 µM. The GI50 is 5.63 µM in test [7] and 0.57 µM in test [8]. Also, the TGI in test [1] is greater than 25 µM; in test [2], greater than 25 µM; in test [3], greater than 25 µM; in test [4], greater than 25 µM; in test [5], greater than 25 µM; in test [6], greater than 22.5 µM. The values for the TGI in test [7] and in test [8] were greater than 22.5 µM and greater than 17.7 µM, respectively.

Values taken from PubChem BioAssay (NCI).
